≈ marks a conversion by molar mass, not a printed value.
Key:
[1] = test system: 9a resistant clones of M. tuberculosis H37Rv; experiment: microbe, parasite or virus in culture; type: cell-based, Mycobacterium tuberculosis
H37Rv-T3 = type: cell-based, M. tuberculosis
H37Rv-5A1 = type: cell-based, M. tuberculosis
H37Rv-14A1 = type: cell-based, M. tuberculosis
M. tuberculosis H37Rv = type: cell-based, Mycobacterium tuberculosis

Structure (SMILES)	Cross resistance profile, Clone # 1 [1]	Cross resistance profile, Clone # 2 [1]	Cross resistance profile, Clone # 3 [1]	Cross resistance profile, Clone # 4 [1]	Cross resistance profile, Clone # 5 [1]	Cross resistance profile, Clone # 6 [1]	Cross resistance profile, Clone # 7 [1]	Cross resistance profile, Clone # 8 [1]	Cross resistance profile, Clone # 9 [1]	Cross resistance profile, Parent [1]	sensitivity of 9a resistant clones to the drug [1]	further results
O=[N+]([O-])c1ccc(C2=NOC(c3ccc(N4CCOCC4)cc3)C2)o1 (stereo not drawn) [Compound 2]	R	R	R	R	R	R	R	R	R	S	–	–
O=[N+]([O-])c1ccc(C2=NOC(c3ccc(N4CCC(Oc5ccc(OC(F)(F)F)cc5)CC4)cc3)C2)o1 (stereo not drawn) [Compound 9a, 3-(5-Nitrofuran-2-yl)-5-(4-(4-(4-(trifluoromethoxy)phenoxy)piperidin-1-yl)phenyl)-4,5-dihydroisoxazole]	R	R	R	R	R	R	R	R	R	S	–	MIC (H37Rv-T3): 0.1 mg/L (≈ 0.193 µM); MIC (H37Rv-5A1): 0.05 mg/L (≈ 0.0966 µM); MIC (H37Rv-14A1): 0.1 mg/L (≈ 0.193 µM); frequency of spontaneous resistance (M. tuberculosis H37Rv): 3×10^−7; MIC ([1]; Mycobacterium tuberculosis, H37RV): > 3.13 mg/L
CC[C@@H](CO)NCCN[C@@H](CC)CO [Ethambutol]	–	–	–	–	–	–	–	–	–	–	retained sensitivity	–
NNC(=O)c1ccncc1 [Isoniazid]	–	–	–	–	–	–	–	–	–	–	retained sensitivity	–
CC(=O)NC[C@H]1CN(c2ccc(N3CCOCC3)c(F)c2)C(=O)O1 [Linezolid]	–	–	–	–	–	–	–	–	–	–	retained sensitivity	–
C[C@]1(COc2ccc(N3CCC(Oc4ccc(OC(F)(F)F)cc4)CC3)cc2)Cn2cc([N+](=O)[O-])nc2O1 [OPC-67683]	S	S	S	S	R	S	S	S	S	S	–	–
O=[N+]([O-])c1cn2c(n1)OC[C@@H](OCc1ccc(OC(F)(F)F)cc1)C2 [PA-824]	S	S	S	S	R	S	S	S	S	S	–	MIC (H37Rv-T3): 100 mg/L (≈ 278 µM); MIC (H37Rv-5A1): 50 mg/L (≈ 139 µM); MIC (H37Rv-14A1): 50 mg/L (≈ 139 µM)
CO[C@H]1/C=C/O[C@@]2(C)Oc3c(C)c(O)c4c(O)c(c(/C=N/N5CCN(C)CC5)c(O)c4c3C2=O)NC(=O)/C(C)=C\C=C\[C@H](C)[C@H](O)[C@@H](C)[C@@H](O)[C@@H](C)[C@H](OC(C)=O)[C@@H]1C [Rifampin]	–	–	–	–	–	–	–	–	–	–	retained sensitivity	–
[H]/N=C(/N)N[C@H]1[C@H](O)[C@@H](O)[C@H](O[C@@H]2O[C@@H](C)[C@](O)(C=O)[C@H]2O[C@@H]2O[C@@H](CO)[C@H](O)[C@@H](O)[C@@H]2NC)[C@@H](N/C(N)=N\[H])[C@@H]1O [Streptomycin]	–	–	–	–	–	–	–	–	–	–	retained sensitivity	–
CC1COc2c(N3CCN(C)CC3)c(F)cc3c(=O)c(C(=O)O)cn1c23 (stereo not drawn) [ofloxacin]	–	–	–	–	–	–	–	–	–	–	retained sensitivity	–

Reference: PMC3914891, “Pentacyclic Nitrofurans with In Vivo Efficacy and Activity against Nonreplicating Mycobacterium tuberculosis” (PLoS ONE, 2014)
